The source of these data is paper PMC7571068, “Antiproliferative and Pro-Apoptotic Effect of Uvaol in Human Hepatocarcinoma HepG2 Cells by Affecting G0/G1 Cell Cycle Arrest, ROS Production and AKT/PI3K Signaling Pathway” (Molecules, 2020).

Assay [1] has as its system AKT/PI3K and ERK1/2/MAPK signaling pathways in HepG2 cells. Briefly: Muse PI3K/MAPK Dual Pathway activation assay. Conditions: HepG2, IC50, 24 h. It counts as cell-based, human. As for the experimental part: (§1) The Muse® PI3K/MAPK Dual Pathway activation kit purchased from Millipore (Billerica, MA, USA) was employed to examine both the PI3K and MAPK signaling pathways simultaneously using the Muse Cell Analyzer (Merck-Millipore®, Burlington, MA, USA). The protocol followed was performed as the manufacturer instructions. The samples (quadruplicates for three different populations of each cell line) were analyzed in the Muse^TM Cell Analyzer.

The subject of assay [2] is AKT/PI3K and ERK1/2/MAPK signaling pathways in WRL68 cells. Briefly: Muse PI3K/MAPK Dual Pathway activation assay. Conditions: WRL68, IC50, 24 h. The assay is classed as cell-based, human. As for the experimental part:
as §1

For the compound `C[C@H]1[C@H](C)CC[C@]2(CO)CC[C@]3(C)C(=CC[C@@H]4[C@@]5(C)CC[C@H](O)C(C)(C)[C@@H]5CC[C@]43C)[C@H]12` [uvaol, urs-12-ene-3,28-diol], in assay [1], the “change in percentage of cells that only activated ERK1/2/MAPK” value was “not altered”; the “decrease in cells that only activated AKT/PI3K” value was 25%; the “increase in cells with activated dual pathway (MAPK and PI3K)” value was 9%; the “net balance: increase of ERK1/2/MAPK signaling pathway” value stood at 9%. For the same compound, the “net balance: inhibition of AKT/PI3K signaling pathway” value in assay [1] is on record as 16%. In assay [2], the “change in percentage of cells in which only ERK1/2/MAPK was activated” value is “not altered”; the “decrease in cells that only activated the AKT/PI3K pathway” value is reported as 22%; the “increase in cells that activated the dual pathway (MAPK and PI3K)” value is recorded as 25%; the “net balance: activation of the ERK1/2/MAPK signaling pathway” value turned out to be 25%. In assay [2], the “net balance: modification of the PI3K pathway” value is listed as “no modification”.
